Laboratory results published in publication PMC7025792 (ACS infectious diseases, 2019).
Values after ≈ are worked out from the molar mass of the structure shown. Values joined by “and” are separate entries in the source; they are usually repeats but may differ in a detail not shown here. Identical values can stand only once.

What was measured:
DfrB = DfrB (Staphylococcus aureus, UniProt P0A017); type: biochemical; conditions: read-out: KM, DHF, NADPH saturation 100 μM
[1] = target: human DHFR isoform (HuDHFR) (Homo sapiens, UniProt P00374); conditions: read-out: KM, DHF, NADPH saturation 100 μM
Sequence of human DHFR isoform (HuDHFR) (P00374 whole entry, canonical isoform): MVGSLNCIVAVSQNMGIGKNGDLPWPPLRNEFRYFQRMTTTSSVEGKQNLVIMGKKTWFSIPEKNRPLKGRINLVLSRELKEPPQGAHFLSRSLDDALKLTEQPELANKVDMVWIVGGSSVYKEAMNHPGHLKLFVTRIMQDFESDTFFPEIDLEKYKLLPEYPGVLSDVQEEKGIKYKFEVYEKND

DfrK [2] = target: T1, DfrK (Staphylococcus aureus, UniProt C7C2U7); conditions: read-out: KM, DHF, NADPH saturation 100 μM
DfrA = DfrA (Staphylococcus aureus, UniProt P13955); assay: biochemical; type: biochemical
Sequence of DfrA (P13955 whole entry): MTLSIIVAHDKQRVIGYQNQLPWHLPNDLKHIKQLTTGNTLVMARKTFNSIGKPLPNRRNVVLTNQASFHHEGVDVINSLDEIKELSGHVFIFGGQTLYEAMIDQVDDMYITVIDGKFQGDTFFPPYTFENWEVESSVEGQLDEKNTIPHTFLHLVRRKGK

DfrG [3] = target: T2, DfrG (Staphylococcus aureus, UniProt Q4H3Y3); conditions: read-out: KM, DHF, NADPH saturation 100 μM
DfrG [4] = target: T2, DfrG; assay: biochemical
UCH121 (dfrG) = assay: MIC, broth dilution, dfrG clinical isolate; type: cell-based, Staphylococcus aureus; conditions: for MIC: Staphylococcus aureus, 18 h, read-out: Minimum Inhibitory Concentrations; for Minimum Inhibitory Concentrations: UCH121 (dfrG), 18 hour, 37°C, isosensitest broth
UCH115 (dfrA) = assay: MIC, broth dilution, dfrA clinical isolate; type: cell-based; conditions: Staphylococcus aureus, 18 h, read-out: Minimum Inhibitory Concentrations
HH1184 (dfrK) = assay: MIC, broth dilution, dfrK clinical isolate; type: cell-based, Staphylococcus aureus; conditions: for Minimum Inhibitory Concentrations: HH1184 (dfrK), 18 hour, 37°C, isosensitest broth; for MIC: Staphylococcus aureus, 18 h, read-out: Minimum Inhibitory Concentrations
DfrK [5] = target: T1, DfrK; assay: biochemical; conditions: Enzymatic inhibition, Table 4, average of three experiments ±SD
HepG2 = assay: Mammalian cytotoxicity, Alamar Blue; type: cell-based; conditions: Homo sapiens, HepG2, 4 h, read-out: Mammalian Toxicity IC50
MCF10A = assay: Mammalian cytotoxicity, Alamar Blue; type: cell-based; conditions: Homo sapiens, MCF-10A, 4 h, read-out: Mammalian Toxicity IC50

Sequence of DfrB (P0A017 whole entry, canonical isoform): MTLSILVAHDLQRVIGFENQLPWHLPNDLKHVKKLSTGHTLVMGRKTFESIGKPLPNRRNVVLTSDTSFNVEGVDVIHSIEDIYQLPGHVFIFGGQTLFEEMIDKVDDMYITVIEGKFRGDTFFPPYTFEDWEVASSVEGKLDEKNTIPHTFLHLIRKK

SMILES	Km (DfrB)	Km [1] [µM]	Km (DfrK [2]) [µM]	Km (DfrA; read-out: KM, DHF, DfrA, NADPH saturation 100 μM) [µM]	Km (DfrG [3])	Ki (DfrG [4]) [nM]	MIC (UCH121 (dfrG)) [mg/L]	Minimum Inhibitory Concentrations (UCH121 (dfrG)) [µg/mL]	MIC (UCH115 (dfrA)) [mg/L]	Ki (DfrA) [nM]	Minimum Inhibitory Concentrations (HH1184 (dfrK)) [µg/mL]	MIC (HH1184 (dfrK)) [mg/L]	Ki (DfrK [5]) [nM]	IC50 (HepG2) [mg/L]	IC50 (MCF10A) [mg/L]
Nc1nc(=O)c2c([nH]1)NCC(CNc1ccc(C(=O)N[C@@H](CCC(=O)O)C(=O)O)cc1)=N2 [DHF, dihydrofolate]	13.3 µM and 13.4 µM	10.5	11	5.76	8.87 µM and 8.9 µM										
COc1cc(Cc2cnc(N)nc2N)c2c(c1OC)OC(C1CC1)C=C2 (stereo not shown) [Iclaprim, iclaprim]						1350 ± 10	> 250	>250	64 (≈ 181 µM)	90 ± 3	>250	> 250			
CN(Cc1cnc2nc(N)nc(N)c2n1)c1ccc(C(=O)N[C@@H](CCC(=O)O)C(=O)O)cc1 [Methotrexate]						1.8 ± 0.1	> 250		> 250	0.38 ± 0.04		> 250	2.5 ± 0.1	> 200	> 200
COc1cc(Cc2cnc(N)nc2N)cc(OC)c1OC [Trimethoprim, trimethoprim]							> 1000	>1000	250 (≈ 861 µM)		>1000	> 1000			
